Experimental data: patent US7244730B2, “2-iminopyrrolidine derivatives” (Eisai Co., Ltd, priority 2001, dated 2007)
Structures can show the parent of a compound that is named as a salt. Where two headings read alike, the source gives them in different places.

Columns and labels:
[1] = test system: platelet rich plasma (PRP), thrombin-induced platelet aggregation; assay: Inhibitory effects on platelet aggregation using platelet rich plasma; type: cell-based; conditions: Homo sapiens, 0.1 h, read-out: Thr IC50
Method: [Inhibitory Effects on Platelet Aggregation Using Platelet Rich Plasma]
Blood was sampled from a healthy adult who had taken no drugs for one week, and 3.8% citric acid (a ratio of 1:9 with respect to the blood) was added as an anticoagulant. The mixture was then centrifuged at 100 g for 10 minutes at room temperature to yield platelet rich plasma (PRP). The PRP-removed blood was further centrifuged at 1000 g for 10 minutes to yield platelet poor plasma (PPP). The number of platelet was counted using a multi-parameter automatic hemocyte counter (K4500, Sysmex), and the PRP was diluted to approximately 300,000/μl with the PPP. The platelet aggregation activity was determined in the following manner using an Aggregometer (MC Medical). GPRP-NH2 (final concentration 1 mM, 25 μl) was added as a fibrin polymerization inhibitor to the PRP (175 μl), after which Ca-free Tyrode solution (control) or the test compound suspension (25 μl) at different concentrations was added, incubation was performed at 37° C. for 3 minutes and then 25 μl of thrombin at the minimum concentration required to produce maximum aggregation (final concentration: optimum concentration among 0.5–1.5 units/ml) was added, for initiation of platelet aggregation. PRP and Ca-free Tyrode solution (control) or the preparation solutions at various concentrations were pre-incubated at 37° C. for 60 minutes, prior to the platelet aggregation reaction in some experiments. After addition of thrombin, the aggregation reaction was examined for 6 minutes and the areas under the aggregation curves were compared to determine the inhibition ratio, from which the IC50 value was calculated.

[2] = test system: Vascular smooth muscle cells (rSMC); assay: Rat smooth muscle cell proliferation assay; type: cell-based; conditions: 48 h; male SD rat aorta rSMC; thrombin 0.1 unit/ml; 2 days; MTT, OD 590 nm; read-out: Rat SMC IC50
Method: [Rat Smooth Muscle Cell Proliferation Assay]
Vascular smooth muscle cells (rSMC) were isolated from male SD rat aorta by the explant method. DMEM medium (Sigma) containing 10% fetal bovine serum (GibcoBRL), streptomycin and penicillin was used as the proliferation medium, and subculture was carried out at 37° C. in the presence of 5% CO2. Culture was initiated after adding 100 μl of rSMC suspension in proliferation medium at a concentration of 1×10^4 cells/ml, to a 96-well plate. After 3 days, cells were rinsed twice with 100 μl of DMEM medium, the medium was exchanged with 100 μl of DMEM medium containing 0.1% albumin (starvation medium), and serum starvation was initiated. The medium was exchanged two days after the serum starvation, 80 μl of starvation medium and 10 μl of the test compound diluted to different concentrations with the starvation medium were added, and then 10 μl of thrombin dissolved in the starvation medium (final concentration: 0.1 unit/ml) was added prior to further incubation for 2 days.
Upon adding 20 μl of MTT (3-[4,5-dimethylthiazol-2-yl]-2,5-diphenyltetrazolium bromide) dissolved in DPBS to 7.5 mg/ml, incubation was continued for 4 hours. The medium was removed by suction, 50 μl of a 10% SDS/0.029% ammonia solution was added, and the mixture was allowed to stand for 2 hours in a CO2 incubator for complete lysis of the cells. As an index of cell proliferation, the OD 590 nm was measured using a plate reader (EL340, BIO-TEK Instruments Inc.), and the control OD value (OD value in the absence of the test compound) minus the OD value in the presence of the test compound was divided by the control OD value minus the blank OD value (OD value without thrombin stimulation) to determine the inhibition ratio, from which the IC50 value was calculated.

thrombin receptor = biological target: T1, thrombin receptor (Homo sapiens, UniProt P25116); assay: Receptor binding assay ([3H] high affinity TRAP, platelet membrane)
T1 construct: centrifuged at 40,000 g for 60 minutes to yield platelet membrane; from tissue; host or cells: platelet membrane prepared from donor blood (platelet rich plasma)
T1 sequence (P25116 22-425): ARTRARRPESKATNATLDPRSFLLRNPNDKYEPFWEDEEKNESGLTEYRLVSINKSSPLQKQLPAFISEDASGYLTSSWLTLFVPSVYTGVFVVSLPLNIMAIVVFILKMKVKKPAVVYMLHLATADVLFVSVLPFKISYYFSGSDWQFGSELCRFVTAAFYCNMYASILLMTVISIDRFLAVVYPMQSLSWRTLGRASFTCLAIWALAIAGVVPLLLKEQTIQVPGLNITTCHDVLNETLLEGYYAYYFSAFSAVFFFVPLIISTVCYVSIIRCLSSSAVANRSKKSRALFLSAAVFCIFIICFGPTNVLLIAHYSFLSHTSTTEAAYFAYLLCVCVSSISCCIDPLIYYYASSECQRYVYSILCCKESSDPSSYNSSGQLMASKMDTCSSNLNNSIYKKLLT
Method: Blood was sampled from a healthy adult who had taken no drugs for one week, and 3.8% citric acid (a ratio of 1:9 with respect to the blood) was added as an anticoagulant. The mixture was then centrifuged at 100 g for 10 minutes at room temperature to yield platelet rich plasma (PRP). The platelet precipitate obtained by centrifuging the PRP was homogenized with a Dounce homogenizer, and then centrifuged at 40,000 g for 60 minutes to yield platelet membrane. The platelet membrane was suspended in a solution prepared by adding DMSO (dimethyl sulfoxide) at 1% concentration to Buffer 1: a 50 mM Tris-HCl buffer containing 10 mM MgCl2 and 1 mM EGTA (ethylene glycol tetraacetic acid), and the suspension was stored at −80° C. Bovine albumin and DMSO were added to Buffer 1 at 0.1% and 20%, respectively, to make preparation solutions for the test compound. The test compounds (20 μl) diluted at various concentrations with the preparation solutions were added to a 96-well multiscreen plate. […] After then adding 100 μl of the previously prepared platelet membrane suspension (0.4 mg/ml) and mixing, incubation was performed at 37° C. for 1 hour. The reaction mixture was suction filtered and then rinsed 3 times with 200 μl of Buffer 1. Next, 30 μl of liquid scintillator was added for measurement of the radioactivity of the plate using a Top Counter (Packard), the value of the radioactivity in the presence of the test compound minus non-specific binding portion was divided by the specific binding value (the value of the binding in the absence of the compound minus the non-specific binding portion) to determine the binding ratio, from which the IC50 value was calculated. The non-specific binding was the value obtained with addition of 10 μM of high affinity TRAP.

[3] = PRP of healthy adult, aggregation initiated with thrombin (0.5–1.5 units/ml), area under aggregation curve, 6 minutes
[4] = platelet membrane of healthy adult, 25 nM [3H] high affinity TRAP, 37° C., 1 hour, read-out: RBA IC50

Compound | IC50 [1, 3] [nM] | IC50 [2] [nM] | IC50 (thrombin receptor; [4]) [nM] | IC50 [1] [nM] | IC50 (thrombin receptor) [nM]
CCOc1cc2c(c(F)c1OCC)C(=N)N(CC(=O)c1cc3c(c(C(C)(C)C)c1)OCCN3CC#N)C2 [Example 5, {8-tert-Butyl-6-[2-(5,6-diethoxy-7-fluoro-1-imino-1,3-dihydro-isoindol-2-yl)acetyl]-2,3-dihydrobenzo[1,4]oxazin-4-yl}acetonitrile hydrobromide] | 290 | 6.1 | 17 |  | 
CCOc1cc2c(c(F)c1OCC)C(=N)N(CC(=O)c1cc(N(C)C)c(OC)c(C(C)(C)C)c1)C2 [Example 6, 1-(3-tert-Butyl-5-dimethylamino-4-methoxy-phenyl)-2-(5,6-diethoxy-7-fluoro-1-imino-1,3-dihydro-isoindol-2-yl)-ethanone hydrobromide] | 72 | 19 | 24 |  | 
CCOc1cc2c(c(F)c1OCC)C(=N)N(CC(=O)c1cc(N3CCOCC3)c(OC)c(C(C)(C)C)c1)C2 [Example 7] | 41 | 32 | 26 |  | 
CCOc1cc2c(c(F)c1OCC)C(=N)N(CC(=O)c1cc(N3CCC(O)CC3)c(OC)c(C(C)(C)C)c1)C2 [Example 8, 1-[3-tert-Butyl-5-(4-hydroxy-piperidin-1-yl)-4-methoxyphenyl]-2-(5,6-diethoxy-7-fluoro-1-imino-1,3-dihydro-isoindol-2-yl)-ethanone hydrobromide] | 84 | 23 | 29 |  | 
CCOc1cc2c(c(F)c1OCC)C(=N)N(CC(=O)c1cc(NCC#N)c(OC)c(C(C)(C)C)c1)C2 [Example 10, (3-tert-Butyl-5-[2-(5,6-diethoxy-7-fluoro-1-imino-1,3-dihydro-isoindol-2-yl)-acetyl]-2-methoxy-phenylamino}-acetonitrile hydrobromide] | 24 | 34 | 26 |  | 
CCOc1cc2c(c(F)c1OCC)C(=N)N(CC(=O)c1cc(N3CCN(CC#N)CC3)c(OC)c(C(C)(C)C)c1)C2 [Example 11, (4-{3-tert-Butyl-5-[2-(5,6-diethoxy-7-fluoro-1-imino-1,3-dihydro-isoindol-2-yl)-acetyl]-2-methoxy-phenyl}piperazin-1-yl)-acetonitrile hydrobromide] | 57 | 75 | 45 |  | 
CCOc1cc2c(c(F)c1OCC)C(=N)N(CC(=O)c1cc(N3C[C@@H](O)[C@H](OC)C3)c(OC)c(C(C)(C)C)c1)C2 [Example 12, 1-[3-tert-Butyl-5-((3R,4R)-3-hydroxy-4-methoxy-pyrrolidin-1-yl)-4-methoxy-phenyl]-2-(5,6-diethoxy-7-fluoro-1-imino-1,3-dihydro-isoindol-2-yl)-ethanone trifluoroacetate] | 41 | 21 | 45 |  | 
CCOc1cc2c(c(F)c1OCC)C(=N)N(CC(=O)c1cc(N3CCN(C(C)=O)CC3)c(OC)c(C(C)(C)C)c1)C2 [Example 13, 1-[3-(4-Acetyl-piperazin-1-yl)-5-tert-butyl-4-methoxy-phenyl]-2-(5,6-diethoxy-7-fluoro-1-imino-1,3-dihydro-isoindol-2-yl)ethanone hydrobromide] | 45 | 120 | 46 |  | 
CCOc1cc2c(c(F)c1OCC)C(=N)N(CC(=O)c1cc(N3CCN(C(=O)COC)CC3)c(OC)c(C(C)(C)C)c1)C2 [Example 16, 1-{3-tert-Butyl-4-methoxy-5-[4-(2-methoxy-acetyl)piperazin-1-yl]phenyl}-2-(5,6-diethoxy-7-fluoro-1-imino-1,3-dihydro-isoindol-2-yl)-ethanone hydrobromide] | 57 | 59 | 53 |  | 
CCOc1cc2c(c(F)c1OCC)C(=N)N(CC(=O)c1cc(N3C[C@H](OCC)[C@@H](O)C3)c(OC)c(C(C)(C)C)c1)C2 [Example 17, 1-[3-tert-Butyl-5-((3S,4S)-3-ethoxy-4-hydroxy-pyrrolidin-1-yl)-4-methoxy-phenyl]-2-(5,6-diethoxy-7-fluoro-1-imino-1,3-dihydro-isoindol-2-yl)ethanone trifluoroacetate] | 80 |  | 32 |  | 
CCOc1cc2c(c(F)c1OCC)C(=N)N(CC(=O)c1cc(NC(C)C)c(OC)c(C(C)(C)C)c1)C2 [Example 26, 1-(3-tert-Butyl-5-isopropylamino-4-methoxy-phenyl)-2-(5,6-diethoxy-7-fluoro-1-imino-1,3-dihydro-isoindol-2-yl)-ethanone hydrobromide] | 79 | 62 | 17 |  | 
CCOc1cc(C(=O)CN2Cc3cc(OCC)c(OCC)c(F)c3C2=N)cc(C(C)(C)C)c1OC [Example 28, 1-(3-tert-Butyl-5-ethoxy-4-methoxy-phenyl)-2-(5,6-diethoxy-7-fluoro-1-imino-1,3-dihydro-isoindol-2-yl)-ethanone hydrobromide] | 44 | 50 | 26 |  | 
CCNC(=O)Oc1c(OCC)cc(C(=O)CN2Cc3cc(OCC)c(OCC)c(F)c3C2=N)cc1C(C)(C)C [Example 29, 2-tert-butyl-4-[2-(5,6-diethoxy-7-fluoro-1-imino-1,3-dihydro-isoindol-2-yl)-acetyl]-6-ethoxy-phenyl ethylcarbamate hydrobromide] |  | 70 |  | 52 | 76
CCOc1cc2c(c(F)c1OCC)C(=N)N(CC(=O)c1cc(N3CCC(=O)CC3)c(OC)c(C(C)(C)C)c1)C2 [Example 94, 1-{3-tert-Butyl-5-[2-(5,6-diethoxy-7-fluoro-1-imino-1,3-dihydro-isoindol-2-yl)-acetyl]-2-methoxy-phenyl}-piperidin-4-one hydrobromide] | 29 | 44 | 13 |  | 
